# Laboratory results: ChEMBL document CHEMBL2150949, “Dibenzocycloheptanoids from the leaves of Cinnamomum subavenium” (J Nat Prod, 2012)
# Assay: Inhibition of Bacillus stearothermophilus alpha-glucosidase type 4
# Parameters: species or system Geobacillus stearothermophilus
row,IC50,Compound
1,118 µM,COCC1=CCc2cc(OC)ccc2-c2cc(O)c(OC)cc21
2,77.1 µM,COc1cc([C@@H]2Oc3c(OC)cc(CCCO)cc3[C@@H]2CO[C@@H]2OC[C@@H](O)[C@H](O)[C@H]2O)ccc1O
3,142 µM,COc1cc2c(cc1O)-c1ccccc1CC=C2CO[C@@H]1O[C@H](CO)[C@@H](O)[C@H](O)[C@H]1O [SUBAVENOSIDE A]
4,50.7 µM,COc1cc2c(cc1O[C@@H]1O[C@H](CO)[C@@H](O)[C@H](O)[C@H]1O)-c1ccccc1CC=C2CO [SUBAVENOSIDE D]
5,19 µM,COCC1=CCc2cc(OC)ccc2-c2cc(O[C@@H]3O[C@H](CO)[C@@H](O)[C@H](O)[C@H]3O)c(OC)cc21 [SUBAVENOSIDE E]

# Further lines, the compound ahead of its results:
row,Compound,IC50
1,CC/C=C/CCO[C@@H]1O[C@H](CO)[C@@H](O)[C@H](O)[C@H]1O,> 150 µM
2,C=CCc1ccc(O[C@@H]2O[C@H](CO[C@@H]3OC[C@](O)(CO)[C@H]3O)[C@@H](O)[C@H](O)[C@H]2O)cc1,> 150 µM
3,CCCC(=O)c1c(O)cc(O)cc1O[C@@H]1O[C@H](CO)[C@@H](O)[C@H](O)[C@H]1O,> 150 µM
4,O=C1C[C@H](c2ccc(O)cc2)Oc2cc(O)cc(O[C@@H]3O[C@H](CO)[C@@H](O)[C@H](O)[C@H]3O)c21,39.8 µM
5,O=C1C[C@@H](c2ccc(O)cc2)Oc2cc(O)cc(O[C@@H]3O[C@H](CO)[C@@H](O)[C@H](O)[C@H]3O)c21,28.3 µM
6,C[C@H]1O[C@H](O[C@H]2[C@H](O)[C@@H](O)[C@@H](O[C@H]3[C@H](O)[C@@H](O)C(O)O[C@@H]3CO)O[C@@H]2CO)[C@H](O)[C@@H](O)[C@@H]1N[C@H]1C=C(CO)[C@@H](O)[C@H](O)[C@H]1O (some centres undefined) [ACARBOSE],0.034 µM
7,OCCc1ccc(O)c(O)c1 [HYDROXYTYROSOL],109 µM
8,C[C@@H]1O[C@@H](OC[C@H]2O[C@@H](Oc3c(-c4ccc(O)cc4)oc4cc(O)cc(O)c4c3=O)[C@H](O)[C@@H](O)[C@@H]2O)[C@H](O)[C@H](O)[C@H]1O [NICOTIFLOROSIDE],110 µM
9,O=C(CCc1ccc(O)cc1)c1c(O)cc(O)cc1O[C@@H]1O[C@H](CO)[C@@H](O)[C@H](O)[C@H]1O [PHLORIZIN],60.5 µM
